Experimental data reported in PMC6583902 (Biochemistry, 2013).

Tested on: C. elegans Sem-5 (sex muscle five) Src-homology 3 (SH3) domain
Settings: stated in words

apparent binding constant measured by ITC: only in the millimolar range
Substance: Ac-VPPXVPPRRRY [proline]
